Results: US6444617B1, “Fused-heterocycle dicarboxylic acid diamide derivatives or salts thereof, herbicide and usage thereof” (Nihon Nohyaku Co., Ltd., priority 1998, dated 2002)

Tests used:
Format in all cases: in vivo
[1] = test system: barnyard grass (Echinochloa crus-galli Beauv.); experiment: Test Example 1: herbicidal effect on paddy field weeds before emergence; conditions: Dosage 5 kg/ha
Method in brief: (§1)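 Seeds of both weeds, still ungerminated, in soil pots held under paddy conditions received a set dose of test solution as soil treatment. After twenty-one days, control relative to untreated pots was calculated and rated on a scoring scale.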

[2] = test system: bulrush (Scirpus juncoides Roxb.); experiment: as above; conditions: Dosage 5 kg/ha
Method in brief: as §1

[3] = test system: barnyard grass (Echinochloa crus-galli Beauv.); experiment: Test Example 2: herbicidal effect on paddy field weeds after emergence; conditions: Dosage 5 kg/ha; one-leaved stage; 21 days after treatment
Method in brief: (§2)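 Weeds were sown in 1/10000 are pots of soil flooded to paddy conditions and grown to the one-leaf stage, then the soil was treated with a solution of compound at a predetermined dosage.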

[4] = test system: bulrush (Scirpus juncoides Roxb.); experiment: as above; conditions: Dosage 5 kg/ha; one-leaved stage; 21 days after treatment
Method in brief: as §2

[5] = test system: monochoria (Monochoria vaginalis Presl); experiment: as above; conditions: Dosage 5 kg/ha; one-leaved stage; 21 days after treatment
Method in brief: as §2

[6] = test system: barnyard grass (Echinochloa crus-galli Beauv.), Ec; experiment: Test Example 3: herbicidal effect on upland weeds before emergence; conditions: dosage 5 kg/ha
Method in brief: (§3)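 Steps: sow upland weed seeds; spray liquid formulation of active ingredient at prescribed concentration prior to emergence; after 14 days, calculate weed-killing rate; judge herbicidal effect.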

[7] = test system: bird's eye speedwell (Veronica persica Poir.), Vp; experiment: as above; conditions: dosage 5 kg/ha
Method in brief: as §3

[8] = test system: cleavers (Galium aparine L.), Ga; experiment: as above; conditions: dosage 5 kg/ha
Method in brief: as §3

[9] = test system: cocklebur (Xanthium strumarium L.), Xs; experiment: as above; conditions: dosage 5 kg/ha
Method in brief: as §3

[10] = test system: forxtail grass (Alopecurus aequalis var. amurensis Ohwi), Am; experiment: as above; conditions: foxtail grass, dosage 5 kg/ha
Method in brief: as §3

[11] = test system: velvetleaf (Abutilon theophtasti L.), At; experiment: as above; conditions: dosage 5 kg/ha
Method in brief: as §3

soybean plant (So) = experiment: Test Example 3: phytotoxicity to upland crop plants, treatment before emergence; conditions: dosage 5 kg/ha
Method in brief: (§4)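 Crop injury to soybean and wheat was judged on a phytotoxicity scale 14 days after a pre-emergence spray of a liquid formulation at a prescribed concentration of compound.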

wheat (Wh) = experiment: as above; conditions: dosage 5 kg/ha
Method in brief: as §4

[12] = test system: barnyard grass (Echinochloa crus-galli Beauv.), Ec; experiment: Test Example 4: herbicidal effect on upland weeds after emergence; conditions: dosage 5 kg/ha; sprayed after emergence; judged 14 days after treatment
Method in brief: (§5)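 Post-emergence foliar spray at a prescribed concentration, applied once the sown weeds and soybean reached defined leaf stages in soil vats; herbicidal effect and soybean injury scored after 14 days.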

[13] = test system: bird's eye speedwell (Veronica persica Poir.), Vp; experiment: as above; conditions: dosage 5 kg/ha; sprayed after emergence; judged 14 days after treatment
Method in brief: as §5

[14] = test system: cleavers (Galium aparine L.), Ga; experiment: as above; conditions: dosage 5 kg/ha; sprayed after emergence; judged 14 days after treatment
Method in brief: as §5

[15] = test system: cocklebur (Xanthium strumarium L.), Xs; experiment: as above; conditions: dosage 5 kg/ha; sprayed after emergence; judged 14 days after treatment
Method in brief: as §5

[16] = test system: forxtail grass (Alopecurus aequalis var. amurensis Ohwi), Am; experiment: as above; conditions: dosage 5 kg/ha; sprayed after emergence; judged 14 days after treatment
Method in brief: as §5

[17] = test system: velvetleaf (Abutilon theophtasti L.), At; experiment: as above; conditions: dosage 5 kg/ha; sprayed after emergence; judged 14 days after treatment
Method in brief: as §5

soybean plant = experiment: Test Example 4: phytotoxicity to upland crop plants, treatment after emergence; conditions: dosage 5 kg/ha, sprayed after emergence, judged 14 days after treatment
Method in brief: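 Post-emergence foliar spray, compound at prescribed concentration, applied at defined leaf stages; weeds plus soybean/wheat grown in soil vats. Read-out: weed-killing rate and crop injury, 14 d post-treatment.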

wheat = experiment: as above; conditions: dosage 5 kg/ha, sprayed after emergence, judged 14 days after treatment
Method in brief: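 Scores of weed-killing rate, with crop phytotoxicity, come from inspection 14 days after plants in soil vats, grown to specified leaf stages, are sprayed with a formulation holding the compound at a prescribed concentration.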

Structure (SMILES) | Pre-emergence treatment Barnyard grass (herbicidal effect) [1] | Pre-emergence treatment Bulrush (herbicidal effect) [2] | Post-emergence treatment Barnyard grass (herbicidal effect) [3] | Post-emergence treatment Bulrush (herbicidal effect) [4] | Post-emergence treatment Monochoria (herbicidal effect) [5] | Herbicidal effect Ec [6] | Herbicidal effect Vp [7] | Herbicidal effect Ga [8] | Herbicidal effect Xs [9] | Herbicidal effect Am [10] | Herbicidal effect At [11] | Phytotoxicity So (soybean plant (So)) | Phytotoxicity Wh (wheat (Wh)) | Herbicidal effect Ec [12] | Herbicidal effect Vp [13] | Herbicidal effect Ga [14] | Herbicidal effect Xs [15] | Herbicidal effect Am [16] | Herbicidal effect At [17] | Phytotoxicity So (soybean plant) | other results
CCCNC(=O)c1nc2ocnc2cc1C(=O)Nc1c(CC)ccc(Cl)c1CC [compound 1245] | 5 (Weed-killing rate is 100%.) | 5 (Weed-killing rate is 100%.) | 5 (Weed-killing rate is 100%.) | 5 (Weed-killing rate is 100%.) | 5 (Weed-killing rate is 100%.) | 5 (Weed-killing rate is 100%.) | 5 (Weed-killing rate is 100%.) | 5 (Weed-killing rate is 100%.) | 5 (Weed-killing rate is 100%.) | 5 (Weed-killing rate is 100%.) | 5 (Weed-killing rate is 100%.) | 5 (Crop-killing rate is 100%.) | 5 (Crop-killing rate is 100%.) | 5 (Weed-killing rate is 100%.) | 5 (Weed-killing rate is 100%.) | 5 (Weed-killing rate is 100%.) | 5 (Weed-killing rate is 100%.) | 5 (Weed-killing rate is 100%.) | 5 (Weed-killing rate is 100%.) | 5 (Crop-killing rate is 100%.) | Phytotoxicity Wh (wheat): 5 (Crop-killing rate is 100%.)
Cc1c(Cl)cccc1NC(=O)c1cc2sccc2nc1C(=O)NC1CCCC1 [compound 892] | 5 (Weed-killing rate is 100%.) | 5 (Weed-killing rate is 100%.) | 5 (Weed-killing rate is 100%.) | 5 (Weed-killing rate is 100%.) | 5 (Weed-killing rate is 100%.) | 5 (Weed-killing rate is 100%.) | 5 (Weed-killing rate is 100%.) | 5 (Weed-killing rate is 100%.) | 4 (Weed-killing rate is 90-99%.) | 5 (Weed-killing rate is 100%.) | 5 (Weed-killing rate is 100%.) | 3 (Crop-killing rate is 70-89%.) | 4 (Crop-killing rate is 90-99%.) | 5 (Weed-killing rate is 100%.) | 5 (Weed-killing rate is 100%.) | 4 (Weed-killing rate is 90-99%.) | 4 (Weed-killing rate is 90-99%.) | 5 (Weed-killing rate is 100%.) | 5 (Weed-killing rate is 100%.) | 3 (Crop-killing rate is 70-89%.) | Phytotoxicity Wh (wheat): 4 (Crop-killing rate is 90-99%.)
CCCNC(=O)c1nc2onc(C)c2cc1C(=O)Nc1c(CC)ccc(Cl)c1CC [compound 1064] | 5 (Weed-killing rate is 100%.) | 5 (Weed-killing rate is 100%.) | 5 (Weed-killing rate is 100%.) | 5 (Weed-killing rate is 100%.) | 5 (Weed-killing rate is 100%.) | 5 (Weed-killing rate is 100%.) | 5 (Weed-killing rate is 100%.) | 5 (Weed-killing rate is 100%.) | 5 (Weed-killing rate is 100%.) | 5 (Weed-killing rate is 100%.) | 5 (Weed-killing rate is 100%.) | 4 (Crop-killing rate is 90-99%.) | 5 (Crop-killing rate is 100%.) | 5 (Weed-killing rate is 100%.) | 5 (Weed-killing rate is 100%.) | 5 (Weed-killing rate is 100%.) | 5 (Weed-killing rate is 100%.) | 5 (Weed-killing rate is 100%.) | 5 (Weed-killing rate is 100%.) | 4 (Crop-killing rate is 90-99%.) | Phytotoxicity Wh (wheat): 5 (Crop-killing rate is 100%.)
CCNC(=O)c1nc2occc2cc1C(=O)Nc1c(CC)ccc(Cl)c1CC [compound 774] | 5 (Weed-killing rate is 100%.) | 5 (Weed-killing rate is 100%.) | 5 (Weed-killing rate is 100%.) | 5 (Weed-killing rate is 100%.) | 5 (Weed-killing rate is 100%.) | 5 (Weed-killing rate is 100%.) | 5 (Weed-killing rate is 100%.) | 5 (Weed-killing rate is 100%.) | 5 (Weed-killing rate is 100%.) | 5 (Weed-killing rate is 100%.) | 5 (Weed-killing rate is 100%.) | 4 (Crop-killing rate is 90-99%.) | 5 (Crop-killing rate is 100%.) | 5 (Weed-killing rate is 100%.) | 5 (Weed-killing rate is 100%.) | 5 (Weed-killing rate is 100%.) | 5 (Weed-killing rate is 100%.) | 5 (Weed-killing rate is 100%.) | 5 (Weed-killing rate is 100%.) | 4 (Crop-killing rate is 90-99%.) | Phytotoxicity Wh (wheat): 5 (Crop-killing rate is 100%.)
CCCNC(=O)c1nc2c(cc1C(=O)Nc1c(CC)ccc(Cl)c1CC)ncn2C [compound 1269] | 5 (Weed-killing rate is 100%.) | 5 (Weed-killing rate is 100%.) | 5 (Weed-killing rate is 100%.) | 5 (Weed-killing rate is 100%.) | 5 (Weed-killing rate is 100%.) | 5 (Weed-killing rate is 100%.) | 5 (Weed-killing rate is 100%.) | 5 (Weed-killing rate is 100%.) | 5 (Weed-killing rate is 100%.) | 5 (Weed-killing rate is 100%.) | 5 (Weed-killing rate is 100%.) | 4 (Crop-killing rate is 90-99%.) | 5 (Crop-killing rate is 100%.) | 5 (Weed-killing rate is 100%.) | 5 (Weed-killing rate is 100%.) | 5 (Weed-killing rate is 100%.) | 5 (Weed-killing rate is 100%.) | 5 (Weed-killing rate is 100%.) | 5 (Weed-killing rate is 100%.) | 4 (Crop-killing rate is 90-99%.) | Phytotoxicity Wh (wheat): 5 (Crop-killing rate is 100%.)
